{"source": "paper PMC11928584", "about": "“H105A peptide eye drops promote photoreceptor survival in murine and human models of retinal degeneration” (Communications Medicine, 2025)", "key": {"[1]": {"biological_target": "T1, recombinant human PEDF-R[1–288] (Homo sapiens, UniProt Q96AD5)", "T1 construct": "SUMOstar (N); His tag (N); made in house; host or cells: Escherichia coli Rosetta(DE3), co-transformed with pGro7 (groES-groEL)", "T1 sequence (Q96AD5 1-288)": "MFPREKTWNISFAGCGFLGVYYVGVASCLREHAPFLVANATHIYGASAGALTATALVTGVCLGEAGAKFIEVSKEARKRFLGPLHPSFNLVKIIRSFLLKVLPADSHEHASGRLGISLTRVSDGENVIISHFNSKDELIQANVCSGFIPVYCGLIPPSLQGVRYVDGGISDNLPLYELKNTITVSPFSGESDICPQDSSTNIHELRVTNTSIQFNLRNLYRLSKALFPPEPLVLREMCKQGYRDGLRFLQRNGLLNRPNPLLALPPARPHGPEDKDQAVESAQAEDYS", "experiment": "Phospholipase A2 activity assay (EnzChek)", "assay_type": "biochemical", "details": "purified recombinant PEDF-R in the presence of peptides", "source_text": "To obtain the PEDF-R protein, the following procedure was followed. For plasmid construction, the plasmid used for expression was pE-SUMOstar-PEDF-R[1–288] C-terminal TwinStrep tagged. This plasmid contained the coding sequence for the human PEDF-R open reading frame between positions 1 and 288. For transformation: The expression plasmid and pGro7(groES-groEL) were co-transformed into Escherichia coli Rosetta(DE3) to obtain colonies for recombinant protein expression[34],[35]. The transformed cells were plated on Luria-Bertani (LB) agar plate containing 10 μg/ml chloramphenicol and 100 µg/ml ampicillin followed by overnight incubation at 37 °C to obtain colonies. A total of 100 ml of LB media containing 10 μg/ml chloramphenicol and 100 µg/ml ampicillin was inoculated with a single colony and incubated at 37 °C with vigorous shaking overnight. Then, 1 liter of LB media containing 0.5 mg/ml L-(+) arabinose, 2% D-(+)-Glucose, 10 μg/ml chloramphenicol and 100 µg/ml ampicillin was inoculated with 2% of the overnight culture and incubated at 37 °C with vigorous shaking until the O.D.600 nm reached 0.5-0.6. […]\nPhospholipase A2 (PLA2) activity was determined using EnzChek™ Phospholipase A2 Assay Kit (Thermo Fisher Scientific, cat. E10217) according to the manufacturer’s instructions and as described before. […] Fluorescence emission was measured at 515 nm with excitation at 460 nm. […]"}, "[2]": {"test_system": "rod photoreceptor outer segments of RhoP23H/+ mice", "experiment": "OS thickness labelled by rhodopsin, RhoP23H/+ mice", "assay_type": "in vivo, mouse", "details": "Fig 6e", "protocol": "Eyes from Rho^P23H/+ mice eyes were enucleated and fixed in Davidson’s fix (8% formaldehyde (Merck, cat. F8775), 32% ethanol (Carlo Erba, cat. 414608), 10% acetic acid (Merck, cat. 695092)) over-night. After embedding in paraffin, 14 μm sections were collected. For TUNEL, sections were treated with […] Citrate Buffer pH 6 (10 mM Tri-sodium citrate (Carlo Erba, cat. 368007)), 0.2 mM citric acid (Merck, cat: 251275) in microwave for 5 min, then labeling was performed for one h at 37 °C using the In Situ Cell Death Detection Kit (Merck, cat. 12156792910). Rod photoreceptors were labeled with anti-RHO 1D4 antibody followed by Alexa Fluor 568 anti-mouse secondary antibody. Cone photoreceptors were labeled with anti-Opsin Blue (Merck, cat. AB5407) and anti-Opsin Red/Green (Merck, cat. AB5405). GFP localization in control transduced retinas was identified with specific anti-GFP antibody and Alexa Fluor 488 anti-mouse secondary antibody. Microglial cell labeling was performed using anti-Iba1 antibody (Wako, cat. 019-19741). For nuclear staining, 0.1 μg/ml DAPI was used. Slides were mounted with Mowiol 4–88 (Merck) and images acquired with a Zeiss Axio Imager A2 fluorescence microscope. To count TUNEL positive cells the RETINA Analysis Tool kit for ImageJ was used[37].\nFig. 6 Effects of eye drops containing H105A peptide in the photoreceptors of Rho^P23H/+ mice. a Scheme of experimental design. Daily peptide eye drops (5 µl of 1 mg/ml peptide) were applied to mice starting at P14 until P19 when immunofluorescence of retinal cross sections was performed. The contralateral control eyes were treated with vehicle HBSS. RE and LE refer to the right and left eyes, respectively. b Immunostaining was performed with antibodies against BAX or BCL2 (green), and DAPI (blue). Histograms show quantification of immunofluorescence intensity for BAX and BCL2 markers. […] Each individual data point represents the average of five (n = 5) retinas ± SD, with statistical significance determined between H105A and vehicle by paired t-test (****p < 0.0001). […] Statistical significance between H105A and untreated is indicated by ∗p ≤ 0.05, and ∗∗p ≤ 0.01. […] Presented as average ± SD, with statistics performed using One-way ANOVA Šídák’s multiple comparisons test. ∗p ≤ 0.05"}}, "note": "Where a SMILES comes first, the peptide text is derived from it."}
{"smiles": "CC[C@H](C)[C@H](NC(=O)[C@H](CC(C)C)NC(=O)[C@H](CC(=O)O)NC(=O)[C@H](Cc1ccc(O)cc1)NC(=O)[C@H](Cc1ccc(O)cc1)NC(=O)[C@H](CC(C)C)NC(=O)[C@H](C)NC(=O)[C@H](CCCNC(=N)N)NC(=O)[C@H](C)NC(=O)[C@@H](NC(=O)[C@@H](NC(=O)[C@H](CO)NC(=O)[C@H](CCC(=O)O)NC(=O)[C@@H](NC(=O)[C@H](CCCNC(=N)N)NC(=O)[C@@H](N)CCC(N)=O)[C@@H](C)O)[C@@H](C)CC)[C@@H](C)CC)C(=O)N[C@@H](CO)C(=O)O", "note": "[H105A] (H-QRTESIIARALYYDLIS-OH)", "values": [{"measurement": "stimulation of PLA2 activity of PEDF-R", "setting": "[1]", "value": "functional effectors of PEDF-R"}, {"measurement": "Outer segments (OS) thickness", "setting": "[2]; replicate 1 of 9", "value": 14.6, "unit": "µm"}, {"measurement": "Outer segments (OS) thickness", "setting": "[2]; replicate 2 of 9", "value": 11.1, "unit": "µm"}, {"measurement": "Outer segments (OS) thickness", "setting": "[2]; replicate 3 of 9", "value": 16.1, "unit": "µm"}, {"measurement": "Outer segments (OS) thickness", "setting": "[2]; replicate 4 of 9", "value": 15.5, "unit": "µm"}, {"measurement": "Outer segments (OS) thickness", "setting": "[2]; replicate 5 of 9", "value": 14.5, "unit": "µm"}, {"measurement": "Outer segments (OS) thickness", "setting": "[2]; replicate 6 of 9", "value": 14.6, "unit": "µm"}, {"measurement": "Outer segments (OS) thickness", "setting": "[2]; replicate 7 of 9", "value": 12.4, "unit": "µm"}, {"measurement": "Outer segments (OS) thickness", "setting": "[2]; replicate 8 of 9", "value": 20.7, "unit": "µm"}, {"measurement": "Outer segments (OS) thickness", "setting": "[2]; replicate 9 of 9", "value": 16.5, "unit": "µm"}]}
